Source: article PMC8206134, “Structural basis of mechano-chemical coupling by the mitotic kinesin KIF14” (Nature Communications, 2021)

Key:
KIF14 K735 (MT-K735) [1] = molecular target: T1, KIF14 K735 (MT-K735) (Mus musculus, UniProt L0N7N1); assay: cryo-EM structure; type: binding; details: microtubule-bound; 4 mM ADP plus 2 mM AlCl3 and 10 mM KF; AlFx and Mg2+ densities near noise; open* conformation
T1 construct: core motor domain N391-L735, no neck-linker; GST tag cleaved (PreScission), E. coli BL21(DE3) pLysS; monomer; with Tubulin alpha chain (Sus scrofa, porcine brain); Tubulin beta chain (Sus scrofa, porcine brain)
T1 sequence (L0N7N1 391-735): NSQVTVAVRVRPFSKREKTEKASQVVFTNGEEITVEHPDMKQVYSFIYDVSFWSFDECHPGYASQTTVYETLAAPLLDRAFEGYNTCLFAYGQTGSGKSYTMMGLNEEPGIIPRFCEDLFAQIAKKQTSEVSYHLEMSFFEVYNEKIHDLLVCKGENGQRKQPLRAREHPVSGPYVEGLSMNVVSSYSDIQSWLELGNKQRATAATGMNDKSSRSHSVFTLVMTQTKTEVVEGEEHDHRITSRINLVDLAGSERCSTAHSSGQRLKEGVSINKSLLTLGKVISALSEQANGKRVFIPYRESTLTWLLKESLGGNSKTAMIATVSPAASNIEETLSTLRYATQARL

KIF14 K748 (MT-K748) = molecular target: T2, KIF14 K748 (MT-K748) (Mus musculus, UniProt L0N7N1); assay: malachite green phosphate assay; type: biochemical; details: 1 mM ATP, 2 uM paclitaxel-stabilised microtubules, 50 nM KIF14, 1 mM MgCl2, PIPES pH 6.8
T2 construct: motor domain plus 13 neck-linker residues N391-A748; GST tag cleaved (PreScission), E. coli BL21(DE3) pLysS; monomer; with Tubulin alpha chain (Sus scrofa, porcine brain); Tubulin beta chain (Sus scrofa, porcine brain)
T2 sequence (L0N7N1 391-748): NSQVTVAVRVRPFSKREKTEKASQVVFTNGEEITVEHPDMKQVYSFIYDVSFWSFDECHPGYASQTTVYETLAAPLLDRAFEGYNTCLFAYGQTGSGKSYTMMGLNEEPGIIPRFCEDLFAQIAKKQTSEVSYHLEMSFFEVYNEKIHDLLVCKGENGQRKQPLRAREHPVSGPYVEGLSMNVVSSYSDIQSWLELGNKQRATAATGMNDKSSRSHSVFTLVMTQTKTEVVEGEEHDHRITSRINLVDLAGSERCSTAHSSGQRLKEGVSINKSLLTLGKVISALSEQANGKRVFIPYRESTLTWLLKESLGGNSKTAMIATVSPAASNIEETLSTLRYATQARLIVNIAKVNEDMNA
Excerpt: (§1) malachite green phosphate assay on KIF14 […] (MT-[…]) | Microtubule-stimulated ATPase rate of […], […], […], and […] constructs

KIF14 K755 (MT-K755) = molecular target: T3, KIF14 K755 (MT-K755) (Mus musculus, UniProt L0N7N1); assay: malachite green phosphate assay; type: biochemical; details: 1 mM ATP, 2 uM paclitaxel-stabilised microtubules, 50 nM KIF14, 1 mM MgCl2, PIPES pH 6.8
T3 construct: motor domain, neck-linker and part of first CC1 heptad N391-K755; GST tag cleaved (PreScission), E. coli BL21(DE3) pLysS; with Tubulin alpha chain (Sus scrofa, porcine brain); Tubulin beta chain (Sus scrofa, porcine brain)
T3 sequence (L0N7N1 391-755): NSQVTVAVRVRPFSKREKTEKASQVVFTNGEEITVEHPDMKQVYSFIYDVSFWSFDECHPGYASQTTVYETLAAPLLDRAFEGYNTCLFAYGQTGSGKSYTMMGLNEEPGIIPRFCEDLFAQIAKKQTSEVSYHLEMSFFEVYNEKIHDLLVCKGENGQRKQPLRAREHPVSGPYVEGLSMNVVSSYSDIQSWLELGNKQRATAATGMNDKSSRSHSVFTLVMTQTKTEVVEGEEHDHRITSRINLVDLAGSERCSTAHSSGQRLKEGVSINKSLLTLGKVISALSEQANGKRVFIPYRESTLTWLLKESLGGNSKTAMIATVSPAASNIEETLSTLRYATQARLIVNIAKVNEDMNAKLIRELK
Excerpt: as §1

KIF14 K735 (MT-K735) [2] = molecular target: T1, KIF14 K735 (MT-K735); assay: malachite green phosphate assay; type: biochemical; details: 1 mM ATP, 2 uM paclitaxel-stabilised microtubules, 50 nM KIF14, 1 mM MgCl2, PIPES pH 6.8
Excerpt: as §1

KIF14 K743 (MT-K743) = molecular target: T4, KIF14 K743 (MT-K743) (Mus musculus, UniProt L0N7N1); assay: malachite green phosphate assay; type: biochemical; details: 1 mM ATP, 2 uM paclitaxel-stabilised microtubules, 50 nM KIF14, 1 mM MgCl2, PIPES pH 6.8
T4 construct: motor domain plus 8 neck-linker residues N391-N743; GST tag cleaved (PreScission), E. coli BL21(DE3) pLysS; monomer; with Tubulin alpha chain (Sus scrofa, porcine brain); Tubulin beta chain (Sus scrofa, porcine brain)
T4 sequence (L0N7N1 391-743): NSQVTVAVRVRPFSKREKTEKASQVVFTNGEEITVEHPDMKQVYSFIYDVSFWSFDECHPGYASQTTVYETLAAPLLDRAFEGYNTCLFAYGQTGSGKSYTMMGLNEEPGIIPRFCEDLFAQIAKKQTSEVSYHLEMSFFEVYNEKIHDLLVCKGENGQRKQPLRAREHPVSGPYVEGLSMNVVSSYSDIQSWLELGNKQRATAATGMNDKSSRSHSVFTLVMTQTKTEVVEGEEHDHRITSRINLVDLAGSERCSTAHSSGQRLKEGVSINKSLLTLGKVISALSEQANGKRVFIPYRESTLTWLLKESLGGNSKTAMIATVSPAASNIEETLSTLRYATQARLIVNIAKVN
Excerpt: as §1

[3] = molecular target: the molecule itself; assay: SEC; size-exclusion chromatography of the KIF14 constructs alone in solution, elution compared with protein standards (66, 44 and 25 kDa)

For Nc1ncnc2c1ncn2[C@@H]1O[C@H](COP(=O)(O)OP(=O)(O)O)[C@@H](O)[C@H]1O [ADP], the cryo-EM structure (KIF14 K735 (MT-K735) [1]) was “The MT-K735-AAF and MT-K743-AAF maps contain strong densities associated with ADP”.

Nc1ncnc2c1ncn2[C@@H]1O[C@H](COP(=O)(O)OP(=O)(O)OP(=O)(O)O)[C@@H](O)[C@H]1O [ATP] was tested, and the “Microtubule-stimulated ATPase rate” value (KIF14 K748 (MT-K748)) was “Microtubule-stimulated ATPase rate of K735, K743, K748, and K755 constructs”, the “Microtubule-stimulated ATPase rate” value (KIF14 K755 (MT-K755)) was “Microtubule-stimulated ATPase rate of K735, K743, K748, and K755 constructs” and the “Microtubule-stimulated ATPase rate” value (KIF14 K735 (MT-K735) [2]) was “Microtubule-stimulated ATPase rate of K735, K743, K748, and K755 constructs”. For the same molecule, the “Microtubule-stimulated ATPase rate” value (KIF14 K743 (MT-K743)) was “Microtubule-stimulated ATPase rate of K735, K743, K748, and K755 constructs”.

B1: KIF14 construct K772 (residues Asn-391 to Asp-772) (domain or fragment, mouse, UniProt L0N7N1 391-772, looked up)
chain: NSQVTVAVRVRPFSKREKTEKASQVVFTNGEEITVEHPDMKQVYSFIYDVSFWSFDECHPGYASQTTVYETLAAPLLDRAFEGYNTCLFAYGQTGSGKSYTMMGLNEEPGIIPRFCEDLFAQIAKKQTSEVSYHLEMSFFEVYNEKIHDLLVCKGENGQRKQPLRAREHPVSGPYVEGLSMNVVSSYSDIQSWLELGNKQRATAATGMNDKSSRSHSVFTLVMTQTKTEVVEGEEHDHRITSRINLVDLAGSERCSTAHSSGQRLKEGVSINKSLLTLGKVISALSEQANGKRVFIPYRESTLTWLLKESLGGNSKTAMIATVSPAASNIEETLSTLRYATQARLIVNIAKVNEDMNAKLIRELKAEIEKLKAAQRSNRNID
notes: KIF14, mouse (Mus musculus), full length 1674 amino acids; Dimer in solution by size-exclusion chromatography; source: E. coli BL21 (DE3) pLysS, purified (glutathione resin, cleaved on beads with PreScission protease)
B1 was tested, and the “stoichiometry N” value [3] was 2.
